According to patent US4260682A, “High sensitivity assays for angiotensin converting enzyme” (priority 1979, dated 1981):
Peptide text beside a SMILES is read from it. * marks the point of attachment. Bz = O=C(c1ccccc1)*

Experiments:
Type in all cases: biochemical
[1] = target: T1, Guinea pig urinary ACE (Cavia porcellus, UniProt H0UWL7); assay: Sulfate and chloride effects on ACE catalysed substrate hydrolysis; settings: 0.05M Hepes
T1 sequence (H0UWL7 33-1302): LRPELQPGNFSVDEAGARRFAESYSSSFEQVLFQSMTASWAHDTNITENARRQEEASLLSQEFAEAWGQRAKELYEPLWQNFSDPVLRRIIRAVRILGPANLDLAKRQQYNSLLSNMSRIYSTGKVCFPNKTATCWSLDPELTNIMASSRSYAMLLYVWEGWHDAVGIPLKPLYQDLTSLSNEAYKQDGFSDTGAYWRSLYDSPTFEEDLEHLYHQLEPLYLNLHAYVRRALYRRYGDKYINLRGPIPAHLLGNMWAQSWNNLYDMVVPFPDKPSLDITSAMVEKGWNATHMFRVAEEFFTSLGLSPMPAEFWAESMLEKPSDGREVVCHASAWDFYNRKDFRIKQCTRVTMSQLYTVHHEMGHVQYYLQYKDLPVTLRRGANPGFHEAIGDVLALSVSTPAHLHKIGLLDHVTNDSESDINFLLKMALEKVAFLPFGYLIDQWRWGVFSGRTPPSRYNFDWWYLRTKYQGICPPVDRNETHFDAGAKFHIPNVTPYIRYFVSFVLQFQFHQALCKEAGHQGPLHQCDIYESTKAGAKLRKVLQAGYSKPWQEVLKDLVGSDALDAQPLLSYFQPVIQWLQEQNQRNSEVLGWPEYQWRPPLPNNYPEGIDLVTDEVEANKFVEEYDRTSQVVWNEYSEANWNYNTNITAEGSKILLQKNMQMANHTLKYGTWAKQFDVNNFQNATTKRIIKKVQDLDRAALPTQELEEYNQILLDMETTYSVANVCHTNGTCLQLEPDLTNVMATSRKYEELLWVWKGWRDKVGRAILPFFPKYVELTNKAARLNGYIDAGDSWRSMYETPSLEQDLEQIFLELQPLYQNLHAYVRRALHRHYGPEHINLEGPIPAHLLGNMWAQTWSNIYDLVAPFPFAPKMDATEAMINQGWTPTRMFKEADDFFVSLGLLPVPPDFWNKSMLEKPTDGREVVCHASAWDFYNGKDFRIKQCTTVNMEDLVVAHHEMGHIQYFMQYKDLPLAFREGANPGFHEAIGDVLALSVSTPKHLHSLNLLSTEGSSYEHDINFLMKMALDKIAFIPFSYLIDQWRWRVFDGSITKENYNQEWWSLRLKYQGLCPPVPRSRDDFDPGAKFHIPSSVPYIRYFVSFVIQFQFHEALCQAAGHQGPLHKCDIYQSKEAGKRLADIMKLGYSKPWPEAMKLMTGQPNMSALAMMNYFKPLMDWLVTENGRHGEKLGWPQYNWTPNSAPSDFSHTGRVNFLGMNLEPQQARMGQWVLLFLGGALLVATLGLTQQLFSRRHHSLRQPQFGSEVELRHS

[2] = tested on: ACE; assay: pH dependence of ACE activity
Excerpt: (§1) The enzyme is active over a broad pH range with a maximum around pH 8.0, but is at least about 50% active in the range pH 7.0-pH 8.8, for both HipHisLeu and benzoylPheAlaPro. Although the enzyme is active in a variety of buffer systems known in the art, it is preferred for convenience, when using benzoylPheAlaPro as substrate, to conduct the assays in 0.05 M Hepes buffer, pH 8.0 containing 0.15 M sodium chloride. Detailed protocols for carrying out the assay are given in the examples. […] The preferred concentration range is 1×10^-9 M to 7×10^- 5 M.

[3] = tested on: ACE; assay: Sulfate and chloride effects on ACE catalysed hydrolysis (general description); settings: sulfate present
Excerpt: An assay for ACE, using HipHisLeu as substrate, is herewith described. The assay is more sensitive than any heretofore disclosed using HipHisLeu as substrate. Maximum sensitivity is achieved by the inclusion of sulfate ions, preferably as sodium sulfate, in the reaction mixture. When 0.1 M NaCl is present in the reaction mixture, sulfate ions are stimulatory from 0.1 M to at least 1.1 M. Maximum stimulation occurs in the range from 0.75 M to 1.1 M Na2 SO4.
An even more sensitive assay for ACE activity has been developed using the novel compound ^3 H-benzoylPheAlaPro as substrate. This new substrate can be used to assay ACE in human urine in incubations as short as 15 minutes. The response of this substrate to ions is strikingly different from the response of HipHisLeu. […] This difficulty has been solved by the proper choice of extracting solvent. While a variety of organic solvents may be suitable for the extraction step, it is preferred to employ toluene. Approximately 88% of ^3 H-benzoylPhe enters the toluene phase while only 6% of the unhydrolyzed substrate enters the toluene phase, when toluene and the acidified reaction mixture are in approximately equal volumes at room temperatures.
as §1

CC(C)C[C@H](NC(=O)[C@H](Cc1c[nH]cn1)NC(=O)CNC(=O)c1ccccc1)C(=O)O [HipHisLeu] (Bz-Gly-His-Leu-OH)
Reaction Velocity, Per Cent of Substrate Hydrolyzed in 10 minutes ([1]; pH 8.0, 0.0M NaCl, Na2 SO4 0 M): 0 Per Cent | Reaction Velocity, Per Cent of Substrate Hydrolyzed in 10 minutes ([1]; pH 8.0, 0.0M NaCl, Na2 SO4 0.1 M): 0 Per Cent | Reaction Velocity, Per Cent of Substrate Hydrolyzed in 10 minutes ([1]; pH 8.0, 0.0M NaCl, Na2 SO4 0.2 M): 0 Per Cent | Reaction Velocity, Per Cent of Substrate Hydrolyzed in 10 minutes ([1]; pH 8.0, 0.0M NaCl, Na2 SO4 0.3 M): 0 Per Cent | Reaction Velocity, Per Cent of Substrate Hydrolyzed in 10 minutes ([1]; pH 8.0, 0.0M NaCl, Na2 SO4 0.4 M): 0.1 Per Cent | Reaction Velocity, Per Cent of Substrate Hydrolyzed in 10 minutes ([1]; pH 8.0, 0.0M NaCl, Na2 SO4 0.5 M): 0.1 Per Cent | Reaction Velocity, Per Cent of Substrate Hydrolyzed in 10 minutes ([1]; pH 8.0, 0.0M NaCl, Na2 SO4 0.6 M): 0.25 Per Cent | Reaction Velocity, Per Cent of Substrate Hydrolyzed in 10 minutes ([1]; pH 8.0, 0.0M NaCl, Na2 SO4 0.7 M): 0.25 Per Cent | Reaction Velocity, Per Cent of Substrate Hydrolyzed in 10 minutes ([1]; pH 8.0, 0.0M NaCl, Na2 SO4 0.75 M): 0.25 Per Cent | Reaction Velocity, Per Cent of Substrate Hydrolyzed in 10 minutes ([1]; pH 8.0, 0.0M NaCl, Na2 SO4 0.8 M): 0.25 Per Cent | Reaction Velocity, Per Cent of Substrate Hydrolyzed in 10 minutes ([1]; pH 8.0, 0.0M NaCl, Na2 SO4 0.9 M): 0.7 Per Cent | Reaction Velocity, Per Cent of Substrate Hydrolyzed in 10 minutes ([1]; pH 8.0, 0.0M NaCl, Na2 SO4 1.2 M): 3.9 Per Cent | Reaction Velocity, Per Cent of Substrate Hydrolyzed in 10 minutes ([1]; pH 8.0, 0.1M NaCl, Na2 SO4 0 M): 0.3 Per Cent | Reaction Velocity, Per Cent of Substrate Hydrolyzed in 10 minutes ([1]; pH 8.0, 0.1M NaCl, Na2 SO4 0.4 M): 4.1 Per Cent | Reaction Velocity, Per Cent of Substrate Hydrolyzed in 10 minutes ([1]; pH 8.0, 0.1M NaCl, Na2 SO4 0.6 M): 8.3 Per Cent | Reaction Velocity, Per Cent of Substrate Hydrolyzed in 10 minutes ([1]; pH 8.0, 0.1M NaCl, Na2 SO4 0.75 M): 12.05 Per Cent | Reaction Velocity, Per Cent of Substrate Hydrolyzed in 10 minutes ([1]; pH 8.0, 0.1M NaCl, Na2 SO4 0.9 M): 12.25 Per Cent | pH of maximum activity [2]: ~8.0 pH | activity of enzyme (relative to maximum) ([2]; range pH 7.0-pH 8.8): at least 50% | dependence of hydrolysis on added chloride [3]: can be carried out in the absence of added chloride, if sulfate is present
